Like-named read-outs stand apart in the source and are kept apart here.

Data set [1] is described as follows: Plasma protein binding by equilibrium dialysis, human plasma. Type of data set: in vitro ADME. Conditions: 0.5–2 μg/mL. The procedure: The plasma protein binding of buagafuran (0.5–2 μg/mL) was investigated by equilibrium dialysis. Aliquots (0.5 mL) of plasma were dialyzed against 10 mL phosphate buffered saline containing a ^3H-buagafuran tracer over a membrane with an 8,000- to 12,000-dalton molecular weight cutoff. Dialysis experiment was performed for 60 h at 4 °C. After the dialysis period, 100 μL of the PBS fraction (containing unbound buagafuran) and 100 μL of the plasma fraction (containing both bound and unbound drug) was taken for liquid scintillation counting. The ratio of buagafuran concentration in buffer to that in plasma was applied to calculate the unbound fraction (Fu).

Details of data set [2]: method as in Zhang, 1997; Li et al., 2001; Li, 2010. Conditions: human liver microsomes, ref Zhang, 1997, Li et al., 2001, 2010; cited from earlier work.
Data set [3] is described as follows: PBPK simulation in human (GastroPlus). Conditions: optimized by comparing fitting with observed PK data. An excerpt:
GastroPlus^TM software (version 8.5) was used to perform all simulations, (Simulations Plus, Inc., Lancaster, CA, United States). The absorption of oral formulations from the GI tract was modeled by the advanced compartmental absorption and transit (ACAT^TM) model implemented in GastroPlus ([Agoram et al., 2001]; [Kuentz et al., 2006]; [Huang et al., 2009]; [Zhang et al., 2011]). Input parameters in the ACAT model include three groups: formulation properties, physicochemical properties and pharmacokinetic parameters. […] The immediate release (IR) suspension for rat and IR capsule for human were selected for simulation of buagafuran in GastroPlus^TM. The ACAT model consists of nine compartments that mimic the GI tract. Each GI tract has an associated ASF. ASF is the multiplier used to scale the permeability to account for different surface-to-volume ratios, pH effects, transporter differences, and other factors that affect absorption between different compartments ([Zhang et al., 2011]). Four coefficients C1–C4 are used to calculate ASF. And there are eight basic ASF models in version 8.5. […]
The pharmacokinetic parameters of unbound fraction in plasma (FUp) were experimentally measured values. […]

The nature of data set [4]: Plasma PK in the rat after oral dosing (observed). Format: in vivo, male Wistar rats. Conditions: male, Wistar; for AUC(0-t): read-out: AUC0-t Observed; for AUC(0-inf): read-out: AUC0-∞ Observed; for MRT inf: read-out: MRT(0-∞) Observed. The source says:
Animal Care and Welfare Committee of Institute of Materia Medica, Chinese Academy of Medical Sciences approved all animal protocols (1 Xian nong tan Street, Xicheng District, Beijing, China; Permission Number: SYXK 2014-0023, Expiration: 06 Aug, 2019). All animal programs are in compliance with the Guide for the Care and Use of Laboratory Animals issued by Beijing Association on Laboratory Animal Care (BALAC). Buagafuran formulation of PVP was suspended in deionized water and was orally administered at 4 or 8 mg/kg to male Wistar rats (weighing 180–200 g). Brain samples treated with the dose of 4 mg/kg and blood samples of both treatments were collected over 3 h. Plasma samples were obtained by centrifugation, and brain tissues were homogenized in a threefold volume (w/v) of saline. Buagafuran concentrations in plasma and brain samples were quantitated by an LC-MS/MS method ([Yang et al., 2011]).
A volume of 200 μL plasma or tissue homogenate was mixed with 100 μL IS (10 ng/mL) followed by addition of 2 mL hexane. After vortexing for 2 min, the mixture was centrifuged for 5 min at 3000 g. The extracted solution was combined and evaporated to dryness at 25°C. The residues were reconstituted in 80 μL of 80% methanol. The chromatographic separation and mass spectrometric analysis was performed on a LC/TSQ Quantum Access mass spectrometer (Thermo Finnigan, San Jose, CA, United States). Ten microliter of the sample was injected onto an Agilent Eclipse Plus C18 analytical column (3.5 μm, 50 mm × 2.1 mm) and then buagafuran and IS were eluted with a gradient of acetonitrile (phase B) and water containing 0.1% v/v formic acid (phase A). The elution program was applied as follows: 50% B for 0–0.5 min, 50% B→97% B for 0.6–5.5 min, 50% B for 5.6–7.6 min. The outlet of the column was detected in positive ionization electrospray mode with selected reaction monitoring. The monitored transitions of buagafuran and IS were m/z 245→105 and 500→142, respectively. The retention time (RT) of buagafuran was 6.13 min. The linear range of the calibration curve was 0.5–800 ng/mL.
Pharmacokinetic parameters were determined with a non-compartmental model using WinNonlin v 6.0 (Pharsight Corporation, Mountain View, CA, United States). The area under the compound concentration versus time curve from time zero to the last time point (AUC0-t) and extrapolated to infinity (AUC0-∞) and the peak plasma concentration (Cmax) were calculated.

As to `CCCCC1=CCC[C@@]2(C)CC[C@@H]3C[C@]12OC3(C)C` [buagafuran], the “concentration dependence of plasma protein binding” value in data set [1] (human plasma) is reported as “no evident concentration-dependent binding”. In addition, the fraction unbound at 60 h in data set [1] (human, plasma, equilibrium dialysis, read-out: Fup human (unbound fraction in human plasma)) stood at 0.04. Further, in data set [2], the extraction ratio entry is listed as “about 50%”. Also, in data set [3], the “input (refined) CLhep” value is reported as 11.7 mL/min/kg. In data set [4] (oral 4 mg/kg), the maximum concentration (Cmax) turned out to be 5.31 ng/mL, the AUC(0-t) stood at 6.69 ng·h/mL, the AUC(0-inf) is 11.4 ng·h/mL and the MRT inf was determined as 212 min. Further, the Tmax in data set [4] (oral 4 mg/kg, read-out: Tmax Observed) came out at 15 min. In addition, in data set [4] (oral 8 mg/kg), the Cmax came to 10.6 ng/mL, the AUC(0-t) turned out to be 14.2 ng·h/mL, the AUC(0-inf) came out at 15.1 ng·h/mL and the MRT inf stood at 72.6 min. Moreover, the Tmax in data set [4] (single oral dosing 4 and 8 mg/kg, read-out: time of peak plasma concentration (converted)) is 15 min.

The record behind these values is publication PMC5641330, “Prediction of a Therapeutic Dose for Buagafuran, a Potent Anxiolytic Agent by Physiologically Based Pharmacokinetic/Pharmacodynamic Modeling Starting from Pharmacokinetics in Rats and Human” (Frontiers in Pharmacology, 2017).
